{"source": "paper PMC11651181", "about": "“Discovery of 6α-Thiazolylcarboxamidonaltrexamine Derivative (NTZ) as a Potent and Central Nervous System Penetrant Opioid Receptor Modulator with Drug-like Properties for Potential Treatment of Opioid Use Disorder” (ACS Pharmacology & Translational Science, 2024)", "key": {"δ opioid receptor (DOR)": {"target": "T1, δ opioid receptor (DOR) (Homo sapiens, UniProt P41143)", "T1 construct": "expressed in transfected cells; host or cells: CHO (hDOR-CHO), membrane preparation", "T1 sequence (P41143 whole entry)": "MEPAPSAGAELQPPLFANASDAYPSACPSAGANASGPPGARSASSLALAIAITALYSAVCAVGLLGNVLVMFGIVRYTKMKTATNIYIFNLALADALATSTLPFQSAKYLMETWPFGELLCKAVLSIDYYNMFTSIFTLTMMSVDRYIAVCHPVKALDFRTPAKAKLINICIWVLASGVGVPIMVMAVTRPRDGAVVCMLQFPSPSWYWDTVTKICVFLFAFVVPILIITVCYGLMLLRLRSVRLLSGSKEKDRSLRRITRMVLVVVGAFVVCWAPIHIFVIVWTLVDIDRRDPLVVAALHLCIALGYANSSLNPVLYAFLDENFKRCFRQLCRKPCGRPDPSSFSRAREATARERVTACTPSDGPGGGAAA", "test": "Competitive radioligand binding assay, DOR", "method": "The competition binding assay was performed using monoclonal mouse opioid receptors expressed in CHO cell lines (monoclonal human δ opioid receptor was used for the DOR assay).\nThe bound radioligand was separated using a Brandel harvester. Specific binding to the MOR, KOR, and DOR was calculated by subtracting the binding observed in the presence of 5 μM naltrexone, U50488, and SNC80, respectively, from the binding in their absence. Relative affinity values (IC50) were determined by fitting displacement binding inhibition data to a nonlinear regression model using GraphPad Prism 8.0 (GraphPad Software, San Diego, CA). The % inhibition was calculated using the formula: % inhibition = 100% - [(binding with the tested compound - nonspecific binding)/specific binding] × 100%. The IC50 values were converted to Ki values using the Cheng-Prusoff equation: Ki = IC50/ [1 + ([L*]/KD)], where [L*] is the concentration of the radioligand and KD is the KD of the radioligand.[68]"}, "DOR": {"target": "T2, DOR (Homo sapiens, UniProt P41143)", "T2 construct": "expressed in transfected cells; host or cells: CHO (DOR-CHO), membrane preparation", "T2 sequence (P41143 whole entry)": "as above", "test": "DOR [35S]GTPγS functional assay", "assay_type": "biochemical", "method": "The [^35S]GTPγS functional assay was used to assess the efficacy of compounds at the MOR, KOR, and DOR. In this assay, 10 μg of MOR-CHO/KOR-CHO/DOR-CHO membrane protein was incubated in 500 μL of TME with 100 mM NaCl, 20 μM GDP, 0.1 nM [^35S]GTPγS, and varying concentrations of the compound for 1.5 h in a 30 °C water bath. Protein concentration was adjusted using the Bradford protein assay. […] After incubation, bound radioactivity was separated by filtration through GF/B glass fiber filters and measured by liquid scintillation counting. All assays were performed in duplicate and repeated at least three times. Net stimulated [35S]GTPγS binding was calculated as agonist-stimulated minus basal binding."}, "[1]": {"test": "In vivo BBB-penetration studies (LC-MS/MS of brain and plasma)", "design": "species or system mouse", "conditions": "10 mg/kg s.c.; for Brain concentration / concentration at 5 min / concentration at 10 min / concentration at 30 min: n = 3, mean ± SD; for concentration at 5 min / concentration at 10 min / concentration at 30 min: subcutaneous", "method": "Swiss Webster mice (three mice each time point) were administered compound 6 (10 mg/kg, s.c.) or vehicle. At 5-, 10-, and 30 min time points post administration, the mice were euthanized by decapitation, and blood and brain samples were collected. Blood samples were centrifuged at 15,000 g for 10 min at 4 °C to isolate plasma. Brains were washed twice with saline before harvesting and stored in saline until homogenization. Both brain and plasma samples were kept at −80 °C until further analysis.\nCompound 6 was identified and quantified in mouse plasma and brain using a modified version of a previously established method, with naloxone-d5 as the internal standard.[20] In brief, compound 6 was extracted from both blood and brain using naloxone-d5 as the internal standard (ISTD) by a liquid/liquid extraction. Before extraction, brain tissue samples were homogenized at a ratio of one-part tissue to three-parts water. Seven-point calibration curves (10–1000 ng/mL or ng/g) were prepared for in plasma, and included drug free control, negative control (lacking internal standard, ISTD) for plasma and brain, and quality control samples in plasma and brain (30, 300, and 750 ng/mL or ng/g). […], used as the internal standard, was added at a concentration of 10 ng/mL to either 100 μL of blood or 400 μL for brain homogenate to each calibrator, control, or sample, excluding the negative control. To these samples 0.5 mL of saturated carbonate/bicarbonate buffer (1:1, pH 9.5) and 2.0 mL of chloroform: isopropanol (8:2) were added. The mixtures were vortexed, centrifuged and the top aqueous layer was removed. The organic layer was transferred to a clean test tube and evaporated to dryness under nitrogen. The residues were reconstituted in 80:20 methanol: water and transferred to autosampler vials for analysis. Chromatographic separation of compound 6 and naltrexone-d5 was performed using a Shimadzu Nexera X2 liquid chromatography system with a Zorbax XDB-C18 4.6 × 75 mm, 3.5-μm column (Agilent Technologies, Santa Clara, CA). The mobile phase consisted of water with 1 g/L ammonium formate and 0.1% formic acid (Phase A) and methanol (Phase B). The flow rate was maintained at 1 mL/min. The gradient started at 20% B, increased to 80% within 1 min, and was held for 1.5 min before returning to the initial conditions. Detection was carried out using a Sciex 6500 QTRAP system with an IonDrive Turbo V source for TurbolonSpray (Sciex, Ontario, Canada). The curtain gas flow rate set to 30 mL/min while the ion source gases 1 and 2 were set to 60 mL/min. The source temperature was maintained at 650 °C and the ionspray voltage was set at 5500 V. The declustering potential was […]. The following quantification and qualifying transition ions were monitored in positive multiple reaction monitoring (MRM) mode with collisions energies in parentheses: compound 6 455> 437 (26), 455 > 268 & (41); naloxone-d5 333> 212 (45), &333 > 315 (25). Retention times of compound 6 and naloxone-d5 were 1.81 and 1.69 min, respectively. The total run time was 4 min. Compound 6 concentration was determined by linear regression plot based on peak area ratios of the calibrators."}, "CYP2A6": {"target": "T3, CYP2A6 (Homo sapiens, UniProt P11509)", "T3 construct": "Eurofins Panlabs, Inc. (contract laboratory)", "T3 sequence (P11509 1-494)": "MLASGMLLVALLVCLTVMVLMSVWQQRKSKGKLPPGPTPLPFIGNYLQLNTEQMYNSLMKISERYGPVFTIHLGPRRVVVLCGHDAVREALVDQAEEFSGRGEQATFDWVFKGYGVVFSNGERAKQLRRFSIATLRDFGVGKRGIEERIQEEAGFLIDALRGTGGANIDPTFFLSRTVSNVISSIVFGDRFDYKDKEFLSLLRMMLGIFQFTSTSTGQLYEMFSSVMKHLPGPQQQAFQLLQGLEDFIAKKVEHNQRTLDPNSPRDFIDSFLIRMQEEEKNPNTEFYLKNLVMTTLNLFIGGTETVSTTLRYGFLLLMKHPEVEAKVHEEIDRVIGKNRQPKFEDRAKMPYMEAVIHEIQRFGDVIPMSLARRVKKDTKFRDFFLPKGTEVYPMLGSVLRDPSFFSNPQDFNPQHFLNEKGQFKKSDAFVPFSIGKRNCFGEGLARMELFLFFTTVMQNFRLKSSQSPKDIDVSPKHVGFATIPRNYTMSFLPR", "test": "Cytochrome P450 inhibition assay, CYP2A6", "assay_type": "in vitro ADME", "method": "The ADMET assessment including the hERG inhibitory activity, plasma protein binding, in vitro metabolic stability profile, CYP inhibitory effect and mutagenic evaluation were conducted by Eurofins Panlabs, Inc.[21],[61],[69]−[71]"}}, "note": "Structures can show the parent of a compound that is named as a salt. Where two headings read alike, the source gives them in different places."}
{"compound": "O=C(N[C@H]1CC[C@@]2(O)[C@H]3Cc4ccc(O)c5c4[C@@]2(CCN3CC2CC2)[C@H]1O5)c1nccs1", "note": "[Compound 6, 17-Cyclopropylmethyl-3,14β-dihydroxy-4,5α-epoxy-6α-(2′-thiazolylcarboxamido)-morphinan hydrochloride]", "values": [{"measurement": "Ki", "setting": "δ opioid receptor (DOR)", "value": "41.1 ± 3.58", "unit": "nM"}, {"measurement": "Selectivity δ/μ", "setting": "δ opioid receptor (DOR); ratio of Ki values", "value": 164}, {"measurement": "EC50", "setting": "DOR", "value": "23.6 ± 4.29", "unit": "nM"}, {"measurement": "Emax", "setting": "DOR; relative to 3 μM SNC80, mean ± SEM, read-out: DOR [35S]GTPγS binding % Emax of SNC80", "value": "46.5 ± 2.17", "unit": "%"}, {"measurement": "Decrease in the plasma levels over 30 min", "setting": "[1]", "value": 33, "unit": "%"}, {"measurement": "Brain concentration", "setting": "[1]; 5 min", "value": "0.187 ± 0.07", "unit": "µg/g"}, {"measurement": "Brain concentration", "setting": "[1]; 10 min", "value": "0.235 ± 0.06", "unit": "µg/g"}, {"measurement": "Brain concentration", "setting": "[1]; 30 min", "value": "0.264 ± 0.05", "unit": "µg/g"}, {"measurement": "Kp at 5 min", "setting": "[1]; Swiss Webster, mouse, brain and plasma, sc, 5 min, read-out: Brain-to-Plasma ratio", "value": 0.102}, {"measurement": "Kp at 10 min", "setting": "[1]; Swiss Webster, mouse, brain and plasma, sc, 10 min, read-out: Brain-to-Plasma ratio", "value": 0.173}, {"measurement": "Kp at 0.5 h", "setting": "[1]; Swiss Webster, mouse, brain and plasma, sc, 30 min, read-out: Brain-to-Plasma ratio", "value": 0.217}, {"measurement": "concentration at 5 min", "setting": "[1]; Swiss Webster, mouse, brain, 5 min, read-out: Brain concentration", "value": 187, "unit": "ng/g"}, {"measurement": "concentration at 10 min", "setting": "[1]; Swiss Webster, mouse, brain, 10 min, read-out: Brain concentration", "value": 235, "unit": "ng/g"}, {"measurement": "concentration at 30 min", "setting": "[1]; Swiss Webster, mouse, brain, 30 min, read-out: Brain concentration", "value": 264, "unit": "ng/g"}, {"measurement": "concentration at 5 min", "setting": "[1]; Swiss Webster, mouse, plasma, 5 min, read-out: Plasma concentration", "value": "1820 ± 280", "unit": "ng/mL"}, {"measurement": "concentration at 10 min", "setting": "[1]; Swiss Webster, mouse, plasma, 10 min, read-out: Plasma concentration", "value": "1360 ± 210", "unit": "ng/mL"}, {"measurement": "concentration at 30 min", "setting": "[1]; Swiss Webster, mouse, plasma, 30 min, read-out: Plasma concentration", "value": "1220 ± 330", "unit": "ng/mL"}, {"measurement": "inhibition at 10 µM", "setting": "CYP2A6; 1.0E-05 M", "value": 7.8, "unit": "%"}, {"measurement": "inhibition at 100 nM", "setting": "CYP2A6; 1.0E-07 M", "value": 6.3, "unit": "%"}]}
